The values below come from patent US9682061B2, “Methods of treating bacterial infections using oritavancin” (THE MEDICINES COMPANY, priority 2009, dated 2017).

Converted amounts (≈) assume the structure as drawn. Read-outs that look alike come from different tables or passages of the source.

One data set concerns beagle dog serum protein. Nature of the data set: Serum protein binding estimated from MIC shift, serum vs serum ultrafiltrate (dog). Type of data set: in vitro ADME. To be noted: from mean MICs, broth microdilution, this study. From the text: (§1) Avid binding of oritavancin (ORI) to filtration and dialysis membranes renders most protein binding methodologies unsuitable. To control for any impact of serum components on bacterial growth and antibiotic activity, MIC shifts (from arithmetic drug dilutions) and area under the inhibitory curve (AUIC) shifts (from time-kill assays) were quantified in the presence of serum (SER) compared to SER ultrafiltrate (ULTRA; free of albumin) to estimate ORI binding to serum. In this manner, the extent of reduction in oritavancin activity in serum was related to its degree of serum protein binding. The method was benchmarked using daptomycin and ceftriaxone (Lee et al., Antimicrob Agents Chemother. 35:2505-2508 (1991); Schmidt et al., Antimicrob Agents Chemother. 52:3994-4000 (2008); Yuk et al., Clin Pharmacokinet. 17:223-235 (1989); McKay et al., Evaluation of oritavancin activity in vitro in the presence of human and mouse serum, abstr P1854. Abstr. 19th European Congress of Clinical Microbiology and Infectious Diseases. European Society of Clinical Microbiology and Infectious Diseases, Basel, Switzerland, May 16, 2009).
(§2) Pooled sera from humans, mice and rats were obtained from Equitech-Bio (Kerrville, Tex.); pooled serum from beagle dogs was from Bioreclamation (Liverpool, N.Y.). ULTRA was prepared using Centricon Plus-50 ultrafilters (Millipore, Billerica, Mass.), whose molecular weight cutoff (50 kDa) excludes albumin. ORI stock solutions were prepared following CLSI M100-818 (Clinical and Laboratory Standards Institute. 2008. CLSI document M100-S18). Staphylococcus aureus ATCC 29213 was used as the test isolate at a final inoculum of ˜5×10^5 CFU/mL in both MIC and AUIC studies.
(§3) Arithmetic MICs: Broth microdilution MIC assays with Staphylococcus aureus ATCC 29213 were based on CLSI guidelines (Clinical and Laboratory Standards Institute, 2009, CLSI document M7-A7). Growth media were 95% serum:5% CAMHB and 95% serum ultrafiltrate:5% CAMHB. […] Percent binding in serum was calculated as follows: % Bound=(1−[mean MICultrafiltrate/mean MICserum]×100%

The next data set has as its system S. aureus ATCC 29213. The data set can be described thus: Broth microdilution MIC with arithmetic drug dilutions. Type of data set: cell-based, Staphylococcus aureus. The conditions noted are these: for MIC: Staphylococcus aureus, ATCC29213, mean. The procedure:
as §2
Arithmetic MICs: Broth microdilution MIC assays with Staphylococcus aureus ATCC 29213 were based on CLSI guidelines (Clinical and Laboratory Standards Institute, 2009, CLSI document M7-A7). Growth media were 95% serum:5% CAMHB and 95% serum ultrafiltrate:5% CAMHB. Arithmetic dilutions of oritavancin and comparators were used to increase precision of minimum inhibitory concentration (MIC) values relative to doubling dilutions. Percent binding in serum was calculated as follows: % Bound=(1−[mean MICultrafiltrate/mean MICserum]×100%
On the technique in general: Broth dilution looks for growth in wells or tubes with falling amounts of substance.

Data set [1] in a line: Serum protein binding estimated from MIC shift, serum vs serum ultrafiltrate (mouse). The data set is classed as in vitro ADME. To be noted: pooled mouse serum compared with serum ultrafiltrate; mouse serum; from mean MICs, broth microdilution; this study; read-out: % Bound (protein binding estimate) (converted).
Excerpt: as §1, §2, §3

In the next data set the test system is rat serum protein. Nature of the data set: Serum protein binding estimated from MIC shift, serum vs serum ultrafiltrate (rat). Type of data set: in vitro ADME. The conditions noted are these: from mean MICs, broth microdilution, this study.
Excerpt: as §1, §2, §3

The subject of the next data set is human serum. To be noted: cited from earlier work.
For another data set, the system named is human serum protein. The data set can be described thus: Serum protein binding estimated from MIC shift, serum vs serum ultrafiltrate (human). Type of data set: in vitro ADME. The conditions noted are these: from mean MICs, broth microdilution, this study.
Excerpt: as §1, §2, §3

Data set [2] can be described thus: Serum protein binding from MIC shift, summary across species. The data set is classed as in vitro ADME, human, mouse, rat, dog. To be noted: pooled serum compared with serum ultrafiltrate; serum from mouse, rat, and beagle dog; MIC shift; read-out: Serum protein binding estimates, range.
Excerpt: as §1, §2, §3

The subject of another data set is mouse serum protein. Nature of the data set: Serum protein binding estimated from MIC shift, serum vs serum ultrafiltrate (mouse). The conditions noted are these: mouse, serum. Type of data set: in vitro ADME.
Excerpt: as §1, §2, §3

The test system of the next data set is plasma protein. To be noted: across tested species; Shaw et al. 2008; cited from earlier work.
Where [3] appears, read: 95% dog serum + 5% CAMHB, read-out: MIC, Serum.
Where [4] appears, read: 95% dog serum ultrafiltrate + 5% CAMHB, read-out: MIC, Ultrafiltrate.
Setting [5] is: 95% human serum + 5% CAMHB, read-out: MIC, Serum.
Setting [6] is: 95% human serum ultrafiltrate + 5% CAMHB, read-out: MIC, Ultrafiltrate.
Setting [7] is: 95% mouse serum + 5% CAMHB, read-out: MIC, Serum.
[8] abbreviates: 95% mouse serum ultrafiltrate + 5% CAMHB, read-out: MIC, Ultrafiltrate.
Where [9] appears, read: 95% rat serum + 5% CAMHB, read-out: MIC, Serum.
The mark [10] stands for this setting: 95% rat serum ultrafiltrate + 5% CAMHB, read-out: MIC, Ultrafiltrate.
[11] abbreviates: cation-adjusted Mueller-Hinton broth, CLSI conditions, Dog, read-out: MIC, CAMHB.
The mark [12] stands for this setting: cation-adjusted Mueller-Hinton broth, CLSI conditions, Human, read-out: MIC, CAMHB.
The mark [13] stands for this setting: cation-adjusted Mueller-Hinton broth, CLSI conditions, Mouse, read-out: MIC, CAMHB.
Where [14] appears, read: cation-adjusted Mueller-Hinton broth, CLSI conditions, Rat, read-out: MIC, CAMHB.
[15] abbreviates: mean MIC in 95% dog serum / mean MIC in 95% dog serum ultrafiltrate.
Setting [16] is: mean MIC in 95% human serum / mean MIC in 95% human serum ultrafiltrate.
Where [17] appears, read: mean MIC in 95% mouse serum / mean MIC in 95% mouse serum ultrafiltrate.
Where [18] appears, read: mean MIC in 95% rat serum / mean MIC in 95% rat serum ultrafiltrate.

The term MIC denotes the lowest concentration that inhibits growth of the organism. `CO/N=C(\C(=O)N[C@@H]1C(=O)N2C(C(=O)O)=C(CSc3nc(=O)c(=O)[nH]n3C)CS[C@H]12)c1csc(N)n1` [Ceftriaxone]: the “% Bound (protein binding estimate)” value in the data set on beagle dog serum protein is 20.9%; in the data set with rat serum protein it was 34.0%; in the data set on human serum protein, 92.6%. Also, the MIC in the data set with S. aureus ATCC 29213 (setting [3]) amounted to 1.38 µg/mL; in the data set with S. aureus ATCC 29213 (setting [4]) it was 1.09 µg/mL; in the data set with S. aureus ATCC 29213 (setting [5]), 38.8 µg/mL; in the data set on S. aureus ATCC 29213 (setting [6]), 2.88 µg/mL; in the data set with S. aureus ATCC 29213 (setting [7]), 6 µg/mL; with S. aureus ATCC 29213 (setting [8]) it was 3.75 µg/mL. In addition, the MIC came out at 5.88 µg/mL in the data set with S. aureus ATCC 29213 (setting [9]); 3.88 µg/mL in the data set on S. aureus ATCC 29213 (setting [10]); 5.25 µg/mL (≈ 9.47 µM) with S. aureus ATCC 29213 (setting [11]); 4.88 µg/mL (≈ 8.8 µM) in the data set with S. aureus ATCC 29213 (setting [12]); 5 µg/mL (≈ 9.02 µM) in the data set on S. aureus ATCC 29213 (setting [13]); 3.5 µg/mL (≈ 6.31 µM) in the data set with S. aureus ATCC 29213 (setting [14]). Besides, the “Mean Fold MIC Increase” value in the data set with S. aureus ATCC 29213 (setting [15]) was 1.3 fold; in the data set with S. aureus ATCC 29213 (setting [16]), 13.5 fold; in the data set on S. aureus ATCC 29213 (setting [17]), 1.6 fold; with S. aureus ATCC 29213 (setting [18]), 1.5 fold. Besides, the fraction unbound in data set [1] was 0.625; in [2] it was 0.625 to 0.791. The “Binding estimate from in vitro microdialysis” value with human serum was 76.8%.

`CCCCCCCCCC(=O)N[C@@H](Cc1c[nH]c2ccccc12)C(=O)N[C@H](CC(N)=O)C(=O)N[C@@H](CC(=O)O)C(=O)N[C@@H]1C(=O)NCC(=O)N[C@@H](CCCN)C(=O)N[C@@H](CC(=O)O)C(=O)N[C@H](C)C(=O)N[C@@H](CC(=O)O)C(=O)NCC(=O)N[C@H](CO)C(=O)N[C@@H]([C@H](C)CC(=O)O)C(=O)N[C@@H](CC(=O)c2ccccc2N)C(=O)O[C@@H]1C` [Daptomycin]: the “% Bound (protein binding estimate)” value in the data set on beagle dog serum protein is reported as 74.5%; in the data set on mouse serum protein, 76.0%; with rat serum protein, 65.6%; with human serum protein, 82.9%. Also, the MIC amounted to 2.5 µg/mL in the data set with S. aureus ATCC 29213 (setting [3]); 0.638 µg/mL with S. aureus ATCC 29213 (setting [4]); 3 µg/mL in the data set with S. aureus ATCC 29213 (setting [5]); 0.513 µg/mL in the data set with S. aureus ATCC 29213 (setting [6]); 12.5 µg/mL in the data set with S. aureus ATCC 29213 (setting [7]); 3 µg/mL in the data set on S. aureus ATCC 29213 (setting [8]). The MIC in the data set with S. aureus ATCC 29213 (setting [9]) came to 1.56 µg/mL; with S. aureus ATCC 29213 (setting [10]) it was 0.538 µg/mL; in the data set with S. aureus ATCC 29213 (setting [11]), 1 µg/mL (≈ 0.617 µM); in the data set on S. aureus ATCC 29213 (setting [12]), 0.975 µg/mL (≈ 0.602 µM); in the data set on S. aureus ATCC 29213 (setting [13]), 0.975 µg/mL (≈ 0.602 µM); in the data set with S. aureus ATCC 29213 (setting [14]), 1.25 µg/mL (≈ 0.771 µM). Further, the “Mean Fold MIC Increase” value with S. aureus ATCC 29213 (setting [15]) is on record as 3.9 fold; in the data set with S. aureus ATCC 29213 (setting [16]), 5.8 fold; in the data set with S. aureus ATCC 29213 (setting [17]), 4.2 fold; in the data set on S. aureus ATCC 29213 (setting [18]), 2.9 fold.

On to `CCCCCCCCCCNCCN[C@@]1(C)C[C@H](O[C@H]2[C@H](Oc3c4cc5cc3Oc3ccc(cc3Cl)[C@@H](O)[C@@H](NC(=O)[C@@H](CC(C)C)NC)C(=O)N[C@@H](CC(N)=O)C(=O)N[C@H]5C(=O)N[C@H]3C(=O)N[C@H](C(=O)N[C@H](C(=O)O)c5cc(O)c(CNCP(=O)(O)O)c(O)c5-c5cc3ccc5O)[C@H](O)c3ccc(c(Cl)c3)O4)O[C@H](CO)[C@@H](O)[C@@H]2O)O[C@@H](C)[C@H]1O` [telavancin], for which, in the data set with plasma protein, the Plasma protein binding result is reported as “approximately 90%”.
